From patent US8431602B2, “Beta-amino acid derivatives for treatment of diabetes” (Merck Patent Gesellschaft mit beschrankter Haftung, priority 2008, dated 2013)

What follows are compounds tested against T1, glucokinase (GK), human enzyme (Homo sapiens, UniProt P35557) (assay: Glucokinase Activation Assay (coupled enzyme assay with PK/LDH, NADH decline at 340 nm)). Details: 2 mM glucose, half maximal effective concentration of activation.
T1 sequence (P35557 1-465): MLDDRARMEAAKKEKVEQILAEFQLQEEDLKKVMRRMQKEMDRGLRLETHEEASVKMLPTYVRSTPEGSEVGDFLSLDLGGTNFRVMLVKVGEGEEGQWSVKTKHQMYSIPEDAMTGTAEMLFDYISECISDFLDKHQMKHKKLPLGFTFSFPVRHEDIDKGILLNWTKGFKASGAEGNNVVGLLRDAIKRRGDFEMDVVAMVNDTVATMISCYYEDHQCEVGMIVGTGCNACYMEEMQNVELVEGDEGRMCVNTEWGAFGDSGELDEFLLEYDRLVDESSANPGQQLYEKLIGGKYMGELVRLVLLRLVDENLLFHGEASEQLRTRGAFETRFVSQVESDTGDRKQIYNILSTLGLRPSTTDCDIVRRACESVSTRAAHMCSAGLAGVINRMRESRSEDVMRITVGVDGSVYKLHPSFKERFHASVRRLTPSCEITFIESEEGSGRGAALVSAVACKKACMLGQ
Assay type: biochemical
Procedure: Glucokinase Activation Screening Assay
GK activity (human or rat enzyme) is measured by a coupled enzyme assay using pyruvate kinase (PK) and lactate dehydrogenase (LDH) as coupling enzymes. GK activity is calculated from the decline in NADH monitored photometrically with a microtiter plate (MTP) reader at 340 nm.
For screening purposes, the GK assay is routinely run in a 384-MTP format, in a total volume of 33 μl/well. 10 μl of the ATP-regeneration solution (in HEPES-buffer*, pH 7.0, 6.73 U/ml pyruvate kinase, 6.8 U/ml lactate dehydrogenase) and 10 μl of the glucokinase-/glucose solution (15 μg/ml, 6.6 mM glucose in HEPES-buffer*, pH 7.0; the concentration of the glucose stock-solution was 660 mM in Millipore H2O) were mixed together with 3 μl of a 10% DMSO solution (in HEPES-buffer*, pH 7.0) containing […] the amounts of the compounds to achieve final compound concentrations in the range between 1 nM to 30 μM (sometimes 300 μM) in the assay solution (s. below). The solutions were mixed for 5 sec, and after a centrifugation at 243×g for 5 min, the solutions were preincubated for 25 min at room temperature. The reaction was started by the addition of 10 μl of the NADH-/ATP-solution (4.29 mM NADH, 4.95 mM ATP, in HEPES-buffer*). The MTP was shaken for 5 sec., and then, the absorbance at 340 nm was monitored continuously in a MTP-reader (TECAN Spectro fluor plus) for the next 27 min (with a MTP-cycling time of 199 sec.). The final concentrations of the various components were as follows: 49.5 mM Hepes, pH 7.0, 1.49 mM PEP, 1.3 mM NADH, 49.5 mM KCl, 4.96 mM MgCl2, 1.5 mM Mg-ATP, 1.98 mM DTT, 2.04 U/ml pyruvate kinase, 2.06 U/ml lactate-dehydrogenase, 0.91% DMSO, 0.15 μg/well glucokinase, and test compounds in the range between 1 nM and 300 μM, The change in the optical density (ΔOD340 nm) in the presence of the compound was expressed relative to the ΔOD340 nm, ctrl of the control incubation (in the presence of 2 mM glucose and 0.91% DMSO), taking into account the optical density of the blank sample (incubation in the absence of 2 mM glucose). For the determination of the half maximal effective concentration (EC50), the %-Ctrl-values were plotted in a semi-logarithmic graph against the cone. of the compound of interest. The data points were fitted to a sigmoid curve function (f(x)=((%-Ctrlmax−%-Ctrlmin)/(1−(EC50/x**^n(Hill)))+%-Ctrlmin)) by a non-linear regression analysis. • Hepes-buffer (50 mM Hepes, pH 7.0, 5 mM MgCl2, 50 mM KCl, 1.5 mM PEP, 0.1% BSA). DTT was added to the Hepes-buffer from a 200× stock solution (in Millipore H2O) freshly each day. The final concentration of DTT in the Hepes-buffer is 2 mM. Culture of Pancreatic INS-1 Cells

| Structure (SMILES) | EC50 [µM] |
| --- | --- |
| COc1ccc(C(CC(=O)Nc2ccc(Br)cn2)N2Cc3ccccc3C2=O)cc1OC (stereo not drawn) [B5, N-(5-Bromo-pyridine-2-yl)-3-(3,4-dimethoxy-phenyl)-3-(1-oxo-1,3-dihydro-isoindole-2-yl)-propionamide] | > 10 |
| COc1cc(C(CC(=O)Nc2ccc(Cl)cn2)N2Cc3ccccc3C2=O)cc(OC)c1OC (stereo not drawn) [B2, N-(5-Chloro-pyridine-2-yl)-3-(1-oxo-1,3-dihydro-isoindole-2-yl)-3-(3,4,5-trimethoxy-phenyl)-propionamide] | 1 to 10 |
| COc1cc(C(CC(=O)Nc2ccc(C)cn2)N2Cc3ccccc3C2=O)cc(OC)c1OC (stereo not drawn) [B7, N-(5-Methyl-pyridine-2-yl)-3-(1-oxo-1,3-dihydro-isoindole-2-yl)-3-(3,4,5-trimethoxy-phenyl)-propionamide] | 1 to 10 |
| COc1ccc(C(CC(=O)Nc2ccc(Cl)cn2)N2Cc3ccccc3C2=O)cc1OC (stereo not drawn) [B6, N-(5-Chloro-pyridine-2-yl)-3-(3,4-dimethoxy-phenyl)-3-(1-oxo-1,3-dihydro-isoindole-2-yl)-propionamide] | > 10 |

Continued, values first:

| EC50 [µM] | Structure (SMILES) |
| --- | --- |
| > 10 | CCOc1ccc(C(CC(=O)Nc2ccc(Cl)cn2)N2Cc3ccccc3C2=O)cc1OC (single isomer, unassigned; (+)) [C4, (+)-N-(5-Chloro-pyridine-2-yl)-3-(4-ethoxy-3-methoxy-phenyl)-3-(1-oxo-1,3-dihydro-isoindole-2-yl)-propionamide] |
| > 10 | CCOc1ccc(C(CC(=O)Nc2ccc(Cl)cn2)N2Cc3ccccc3C2=O)cc1OC (stereo not drawn) [C23, N-(5-Chloro-pyridine-2-yl)-3-(4-ethoxy-3-methoxy-phenyl)-3-(1-oxo-1,3-dihydro-isoindole-2-yl)-propionamide] |
| > 10 | COc1cccc(C(CC(=O)Nc2ccc(Cl)cn2)N2Cc3ccccc3C2=O)c1OC (stereo not drawn) [C3, N-(5-Chloro-pyridine-5-yl)-3-(2,3-dimethoxy-phenyl)-3-(1-oxo-1,3-dihydro-isoindole-2-yl)-propionamide] |
| 1 to 10 | COc1cc(C(CC(=O)Nc2ccc(Cl)cn2)N2Cc3ccccc3C2=O)cc(OC)c1OC (single isomer, unassigned; (+)) [C1, (+)-N-(5-Chloro-pyridine-2-yl)-3-(1-oxo-1,3-dihydro-isoindole-2-yl)-3-(3,4,5-trimethoxy-phenyl)-propionamide] |
| > 10 | CCOc1ccc(C(CC(=O)Nc2ccc(Cl)cn2)N2Cc3ccccc3C2=O)cc1OC (single isomer, unassigned; (-)) [C5, (−)-N-(5-Chloro-pyridine-2-yl)-3-(4-ethoxy-3-methoxy-phenyl)-3-(1-oxo-1,3-dihydro-isoindole-2-yl)-propionamide] |
